Data: patent US20230312601A1, “THIAZOLO[5,4-B]PYRIDINE MALT-1 INHIBITORS” (AbbVie Inc., priority 2022, published 2023)
pEC50: −log10 of the molar value.

Assays:
CYP 3A4 mRNA = test: CYP3A4 Induction Assay (qPCR, human hepatocytes); assay type: in vitro ADME; conditions: 10 μM compound, relative to rifampicin 10 μM
How it was run: (§1)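 Cryopreserved human hepatocytes (60,000 cells/well), overlaid with Geltrex, were dosed at 10 μM final, with omeprazole, rifampicin and probenecid as controls. RNA was isolated on day 3. CYP3A4 mRNA was measured by TaqMan RT-qPCR with GAPDH as the reference gene.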

CYP3A4 mRNA = test: CYP3A4 Induction Assay (qPCR, human hepatocytes); assay type: in vitro ADME; conditions: cryopreserved human hepatocytes (plated), 10 μM compound, mRNA fold over vehicle (0.1% DMSO)
How it was run: as §1

human MALT-1 protein = human MALT-1 protein (Homo sapiens (Human), UniProt Q9UDY8); test: MALT-1 Biochemical Assay (Quench-FRET enzyme assay); conditions: human MALT-1 6 nM, substrate 2 μM, 40 min preincubation
Sequence of human MALT-1 protein (Q9UDY8 whole entry): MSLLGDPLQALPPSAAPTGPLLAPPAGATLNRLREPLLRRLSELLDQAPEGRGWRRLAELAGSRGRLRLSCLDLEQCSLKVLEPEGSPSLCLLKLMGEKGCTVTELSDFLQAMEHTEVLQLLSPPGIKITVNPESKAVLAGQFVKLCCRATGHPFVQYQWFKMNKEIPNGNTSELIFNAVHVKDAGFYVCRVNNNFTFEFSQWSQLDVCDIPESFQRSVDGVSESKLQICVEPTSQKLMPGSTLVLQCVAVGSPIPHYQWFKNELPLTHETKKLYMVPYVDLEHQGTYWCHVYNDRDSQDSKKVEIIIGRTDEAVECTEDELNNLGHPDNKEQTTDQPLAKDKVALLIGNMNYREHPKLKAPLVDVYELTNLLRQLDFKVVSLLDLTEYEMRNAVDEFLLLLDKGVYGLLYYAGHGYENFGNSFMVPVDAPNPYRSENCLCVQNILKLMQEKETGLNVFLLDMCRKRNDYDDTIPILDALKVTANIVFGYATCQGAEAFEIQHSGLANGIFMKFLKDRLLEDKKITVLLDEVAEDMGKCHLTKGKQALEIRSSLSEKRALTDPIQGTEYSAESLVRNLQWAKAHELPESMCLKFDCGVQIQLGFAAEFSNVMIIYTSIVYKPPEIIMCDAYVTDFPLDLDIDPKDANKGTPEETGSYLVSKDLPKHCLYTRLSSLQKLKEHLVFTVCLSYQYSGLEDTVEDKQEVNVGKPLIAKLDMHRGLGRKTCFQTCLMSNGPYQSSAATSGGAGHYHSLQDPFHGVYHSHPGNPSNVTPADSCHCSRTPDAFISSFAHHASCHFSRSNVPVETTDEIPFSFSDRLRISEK
How it was run: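 Human MALT-1 (6 nM) preincubated 40 min at room temperature with compound in pH 7.5 HEPES buffer containing 0.8 M sodium citrate and 2 mM DTT. Then 2 μM quenched TAMRA/QSY7 peptide substrate added for 60 min. Cleavage read by fluorescence (Ex 535/Em 590); EC50 is half-maximal inhibition of protease activity.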

OCI-LY3 IL6 = test: MALT-1 Cell IL-6 AlphaLISA Assay; assay type: cell-based; conditions: Homo sapiens; OCI-LY3 cells, 48 hours incubation; read-out: OCI-LY3 IL6 48 hour Inhibition EC50
How it was run: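 MALT-1-dependent ABC-DLBCL OCI-LY3 cells were seeded at 50,000 cells/mL onto compound (30 μM to 1.5 nM) and incubated 48 hours at 37° C. Secreted human IL-6 in the medium was measured by AlphaLISA with acceptor beads, biotinylated anti-IL-6 antibody and streptavidin donor beads.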

male Sprague-Dawley rats = test: Cardiovascular Assay in anesthetized rats; assay type: in vivo; conditions: rat; for HR (%) / MAP (%) / dP/dt@50 (%): change from vehicle; for Drug (μg/mL SEM): plasma at end of infusion
Description: The following cardiovascular assay was conducted using male Sprague-Dawley rats that were anesthetized with Inactin (thiobutabarbital), instrumented (catheterized both femoral artery and vein; catheterize left ventricular) and allowed to stabilize. Following a 30-minute baseline period, each compound was infused at low, medium, and high doses/30 minutes. Plasma samples were taken at the end of each dose infusion. If, at any point, the mean arterial pressure (MAP) of an animal decreased below 70 mmHg, the infusion was immediately stopped, a final blood sample was taken, and hemodynamic data for that animal was removed from the group average for all subsequent time points. A 15% change from vehicle for MAP or heart rate (HR), respectively, is considered biologically relevant. A 20% change from vehicle for dP/dt@50 is considered biologically relevant.

Row | SMILES | CYP3A4 % of positive control (%) (CYP 3A4 mRNA) | fold induction at 1 day, 10 µM (CYP3A4 mRNA) | pEC50 (human MALT-1 protein) | pEC50 (OCI-LY3 IL6) | HR (%) (male Sprague-Dawley rats; dose 3 mg/kg) | MAP (%) (male Sprague-Dawley rats; dose 3 mg/kg) | dP/dt@50 (%) (male Sprague-Dawley rats; dose 3 mg/kg) | HR (%) (male Sprague-Dawley rats; dose 10 mg/kg) | MAP (%) (male Sprague-Dawley rats; dose 10 mg/kg) | dP/dt@50 (%) (male Sprague-Dawley rats; dose 10 mg/kg) | HR (%) (male Sprague-Dawley rats; dose 30 mg/kg) | MAP (%) (male Sprague-Dawley rats; dose 30 mg/kg) | dP/dt@50 (%) (male Sprague-Dawley rats; dose 30 mg/kg) | Drug (μg/mL SEM) (male Sprague-Dawley rats; dose 3 mg/kg) [µg/mL] | Drug (μg/mL SEM) (male Sprague-Dawley rats; dose 10 mg/kg) [µg/mL] | Drug (μg/mL SEM) (male Sprague-Dawley rats; dose 30 mg/kg) [µg/mL]
1 | CO[C@@H](C)c1c(Nc2ccc([C@H](N(C)C(=O)C3CCS(=O)(=O)CC3)C(F)(F)F)cc2)cnc2sc(C)nc12 [Example 1, N-methyl-1,1-dioxo-N-{(1S)-2,2,2-trifluoro-1-[4-({7-[(1S)-1-methoxyethyl]-2-methyl[1,3]thiazolo[5,4-b]pyridin-6-yl}amino)phenyl]ethyl}-1λ^6-thiane-4-carboxamide] | (5.46) % | 1.45 | 7.04 | 6.70 | −4 | −5 | 5 | −8 | −8 | 12 | −17 | −16 | 11 | 2.32 ± 0.12 | 9.36 ± 0.41 | 24.00 ± 1.63
2 | CO[C@H](c1c(Nc2ccc([C@H](N(C)C(=O)C3CCS(=O)(=O)CC3)C(F)(F)F)cc2)cnc2sc(C)nc12)C(F)F [Example 3, N-{(1S)-1-[4-({7-[(1R)-2,2-difluoro-l-methoxyethyl]-2-methyl[1,3]thiazolo[5,4-b]pyridin-6-yl}amino)phenyl]-2,2,2-trifluoroethyl} -N-methyl-1,1-dioxo-1λ^6-thiane-4-carboxamide] | (1.75) % | 1.12 | 6.96 | 6.85 | −1 | 1 | 0 | −3 | 0 | 3 | −12 | −13 | −3 | 2.18 ± 0.10 | 8.34 ± 0.55 | 22.87 ± 2.67
3 | CO[C@@H](C)c1c(Nc2ccc([C@H](N(C)C(=O)C3CCN(C(C)=O)CC3)C(F)(F)F)cc2)cnc2sc(C)nc12 [Example 19, 1-acetyl-N-methyl-N-{(1S)-2,2,2-trifluoro-1-[4-({7-[(1S)-1-methoxyethyl]-2-methyl[1,3]thiazolo [5,4-b]pyridin-6-yl}amino)phenyl]ethyl}piperidine-4-carboxamide] | (−0.162) % | 0.985 | 6.70 | 6.02 | −5 | 0 | −5 | −5 | −1 | −5 | −9 | −2 | −3 | 2.51 ± 0.29 | 8.92 ± 0.73 | 25.13 ± 0.98
4 | CO[C@H](c1c(Nc2ccc([C@@H](C(F)F)N(C)C(=O)C3CCN(C(=O)CO)CC3)cc2)cnc2sc(C)nc12)C(F)F [Example 31, N-{(1S)-1-[4-({7-[(1R)-2,2-difluoro-1-methoxyethyl]-2-methyl[1,3]thiazolo[5,4-b]pyridin-6-yl}amino)phenyl]-2,2-difluoroethyl}-1-(hydroxyacetyl)-N-methylpiperidine-4-carboxamide] | (4.87) % | 1.37 | 7.09 | 6.36 | – | – | – | – | – | – | – | – | – | – | – | –
5 | CO[C@@H](c1c(Nc2ccc([C@H](N(C)C(=O)C3CCN(C(=O)CO)CC3)C(F)(F)F)cc2)cnc2sc(C)nc12)C(F)F [Example 32, N-{(1S)-1-[4({7-[(1S)-2,2-difluoro-1-methoxyethyl]-2-methyl[1,3]thiazolo [5,4-b]pyridin-6-yl}amino)phenyl]-2,2,2-trifluoroethyl}-1-(hydroxyacetyl)-N-methylpiperidine-4-carboxamide] | (2.56) % | 1.2 | 6.95 | 6.60 | – | – | – | – | – | – | – | – | – | – | – | –
6 | CO[C@@H](c1c(Nc2ccc([C@H](N(C)C(=O)C3CCN(C(C)=O)CC3)C(F)(F)F)cc2)cnc2sc(C)nc12)C(F)F [Example 33, 1-acetyl-N-{(1S)-1-[4-({7-[(1S)-2,2-difluoro-1-methoxyethyl]-2-methyl[1,3]thiazolo [5,4-b]pyridin-6-yl}amino)phenyl]-2,2,2-trifluoroethyl}-N-methylpiperidine-4-carboxamide] | (20.2) % | 2.72 | 6.79 | 6.74 | −5 | −5 | 1 | −7 | −5 | 1 | −8 | −9 | 7 | 2.52 ± 0.39 | 11.20 ± 0.60 | 34.10 ± 1.95
7 | CO[C@H](C)c1c(Nc2ccc([C@H](N(C)C(=O)C3CCN(C(=O)CO)CC3)C(F)(F)F)cc2)cnc2sc(C)nc12 [Example 34, 1-(hydroxyacetyl)-N-methyl-N-1{(1S)-2,2,2-trifluoro-1-[4-({7-[(1R)-1-methoxyethyl]-2-methyl[1,3]thiazolo[5,4-b]pyridin-6-yl}amino)phenyl]ethyl}piperidine-4-carboxamide] | (13) % | 2.11 | 6.95 | 6.72 | – | – | – | – | – | – | – | – | – | – | – | –
8 | CO[C@H](C)c1c(Nc2ccc([C@H](N(C)C(=O)C3CCN(C(C)=O)CC3)C(F)(F)F)cc2)cnc2sc(C)nc12 [Example 35, 1-acetyl-N-methyl-N-{(1S)-2,2,2-trifluoro-1-[4-({7-[(1R)-1-methoxyethyl]-2-methyl[1,3]thiazolo [5,4-b]pyridin-6-yl}amino)phenyl]ethyl}piperidine-4-carboxamide] | (17) % | 2.45 | 6.30 | 5.14 | – | – | – | – | – | – | – | – | – | – | – | –
9 | CO[C@H](c1c(Nc2ccc([C@@H](C(F)F)N(C)C(=O)C3CCN(C(=O)CO)CC3)cc2)cnc2sc(C)nc12)C(F)(F)F [Example 36, N-{(1S)-2,2-difluoro-1-[4-({2-methyl-7-[(1R)-2,2,2-trifluoro-1-methoxyethyl][1,3]thiazolo [5,4-b]pyridin-6-yl}amino)phenyl]ethyl}-1-(hydroxyacetyl)-N-methylpiperidine-4-carboxamide] | (14.4) % | 1.9 | 7.32 | 6.57 | – | – | – | – | – | – | – | – | – | – | – | –
10 | CO[C@H](c1c(Nc2ccc([C@@H](C(F)F)N(C)C(=O)C3CCN(C(C)=O)CC3)cc2)cnc2sc(C)nc12)C(F)(F)F [Example 37, 1-acetyl-N-{(1S)-2,2-difluoro-1-[4-({2-methyl-7-[(1R)-2,2,2-trifluoro-1-methoxyethyl][1,3]thiazolo[5,4-b]pyridin-6-yl}amino)phenyl]ethyl}-N-methylpiperidine-4-carboxamide] | (19) % | 2.19 | 7.22 | 6.68 | – | – | – | – | – | – | – | – | – | – | – | –
